Data published in patent US6414005B1, “Heterocyclic compounds having nos inhibitory activities” (Chugai Seiyaku Kabushiki Kaisha, priority 1997, dated 2002).
Counter-ions that a name gives are not always drawn. Like-named read-outs stand apart in the source and are kept apart here. Blank lines part the entries; values can stand above or below the compound they belong to.

Tests used:
[1] = target: T1, nNOS (type 1) (Rattus norvegicus, UniProt P29476); test: NOS activity, conversion of L-[3H]arginine to L-[3H]citrulline, crude enzyme of nNOS; type: biochemical; conditions: for Ratio of IC50 eNOS/nNOS / Ratio of IC50 iNOS/nNOS: index of selectivity
T1 construct: from tissue; host or cells: rat cerebral cortex, 100,000 x g supernatant (cytosol)
Protocol: The crude enzyme of nNOS was prepared by the following procedure. Normal untreated male Sprague Dawley (SD) rats (body weight, 300-400 g) were decapitated; the whole brain was immediately taken out from each animal and the cerebral cortex was separated on ice. Then, 5 volumes of 50 mM Tris-HCl containing 1 mM DTT (pH 7.4) was added and the mixture was homogenized for 3 min and centrifuged at 1,000×g for 10 min. The resulting supernatant was further centrifuged at 100,000×g for 60 min and a soluble cytosolic fraction of the finally obtained supernatant was used as the crude enzyme of nNOS.
(§1) The reaction was started by addition of L-[^3H] arginine. After incubation at 37° C. for 10 min, the reaction was terminated by addition of 2 ml of 50 mM Tris-HCl (pH 5.5) containing 1 mM EDTA and placing the mixture on ice. The reaction solution was passed through a cation-exchange resin column (Dowex AG50WX-8, Na^+ form, 3.2 ml) to separate the reaction product L-[^3H] citrulline from the unreacted residual substrate L-[^3H] arginine. The eluate was combined with another eluate resulting from the passage of a given amount of distilled water through the column and put into a minivial for recovery of L-[^3H] citrulline. Thereafter, a scintillation fluid was added and the contained radioactivity was measured with a liquid scintillation counter to determine the amount of L-[^3H] citrulline.
The activity of nNOS or eNOS was determined by subtracting the activity detected in the absence of CaCl2 and calmodulin from the activity detected in the presence of CaCl2 and calmodulin. The protein concentration of each crude enzyme sample was determined with a micro-assay kit of Bio Rad Co. Each experiment was conducted in a duplicate.

[2] = target: T2, eNOS (type 3) (Bos taurus, UniProt P29473); test: NOS activity, conversion of L-[3H]arginine to L-[3H]citrulline, crude enzyme of eNOS; type: biochemical, cow; conditions: for IC50: crude enzyme from cow pulmonary arterial endothelium cells (CPAE), 100 nM L-[3H]arginine, 37° C., 10 min; for Ratio of IC50 eNOS/inos: index of selectivity
T2 construct: Cow pulmonary arterial endothelium cells (CPAE) were cultured in a MEM medium containing 20% FBS; endogenous in cells; host or cells: CPAE (cow pulmonary arterial endothelium cells), detergent extract, 100,000 x g supernatant

[3] = target: iNOS (type 2) (Rattus norvegicus, UniProt Q06518); test: NOS activity, conversion of L-[3H]arginine to L-[3H]citrulline, iNOS; type: biochemical; conditions: 100 nM L-[3H]arginine, 37° C., 10 min
Protocol: Crude enzymes of the respective NOS isoforms were prepared by the following procedures (Nagafuji et al., Neuroreport 6, 1541-1545, 1995).
The method of measuring NOS activity was basically the same as already reported by the present inventors and consisted of determining quantitatively the conversion of a substrate L-[^3H]arginine to a reaction product L-[^3H] citrulline (Nagafuji et al., in Brain Edema IX (Ito et al, eds.) 60, pp. 285-288, 1994; Nagafuji et al., Neuroreport 6, 1541-1545, 1995)
The reaction solution consisted of 100 nM L-[^3H] arginine, a prepared crude NOS enzyme sample (10-30 μg/ml protein), 1.25 mM CaCl2, 1 mM EDTA, 10 μg/ml calmodulin, 1 mM NADPH, 100 μM tetrahydrobiopterine, 10 μM FAD, 10 μM FMN and 50 mM Tris-HCl (pH 7.4), to which one of the compounds of the invention or one of the control compounds was added.
as §1

[4] = crude enzyme from rat cerebral cortex, soluble cytosolic fraction, 100 nM L-[3H]arginine, 37° C., 10 min, read-out: IC50 (nM) nNOS (type 1)

T2 sequence (P29473 2-1205): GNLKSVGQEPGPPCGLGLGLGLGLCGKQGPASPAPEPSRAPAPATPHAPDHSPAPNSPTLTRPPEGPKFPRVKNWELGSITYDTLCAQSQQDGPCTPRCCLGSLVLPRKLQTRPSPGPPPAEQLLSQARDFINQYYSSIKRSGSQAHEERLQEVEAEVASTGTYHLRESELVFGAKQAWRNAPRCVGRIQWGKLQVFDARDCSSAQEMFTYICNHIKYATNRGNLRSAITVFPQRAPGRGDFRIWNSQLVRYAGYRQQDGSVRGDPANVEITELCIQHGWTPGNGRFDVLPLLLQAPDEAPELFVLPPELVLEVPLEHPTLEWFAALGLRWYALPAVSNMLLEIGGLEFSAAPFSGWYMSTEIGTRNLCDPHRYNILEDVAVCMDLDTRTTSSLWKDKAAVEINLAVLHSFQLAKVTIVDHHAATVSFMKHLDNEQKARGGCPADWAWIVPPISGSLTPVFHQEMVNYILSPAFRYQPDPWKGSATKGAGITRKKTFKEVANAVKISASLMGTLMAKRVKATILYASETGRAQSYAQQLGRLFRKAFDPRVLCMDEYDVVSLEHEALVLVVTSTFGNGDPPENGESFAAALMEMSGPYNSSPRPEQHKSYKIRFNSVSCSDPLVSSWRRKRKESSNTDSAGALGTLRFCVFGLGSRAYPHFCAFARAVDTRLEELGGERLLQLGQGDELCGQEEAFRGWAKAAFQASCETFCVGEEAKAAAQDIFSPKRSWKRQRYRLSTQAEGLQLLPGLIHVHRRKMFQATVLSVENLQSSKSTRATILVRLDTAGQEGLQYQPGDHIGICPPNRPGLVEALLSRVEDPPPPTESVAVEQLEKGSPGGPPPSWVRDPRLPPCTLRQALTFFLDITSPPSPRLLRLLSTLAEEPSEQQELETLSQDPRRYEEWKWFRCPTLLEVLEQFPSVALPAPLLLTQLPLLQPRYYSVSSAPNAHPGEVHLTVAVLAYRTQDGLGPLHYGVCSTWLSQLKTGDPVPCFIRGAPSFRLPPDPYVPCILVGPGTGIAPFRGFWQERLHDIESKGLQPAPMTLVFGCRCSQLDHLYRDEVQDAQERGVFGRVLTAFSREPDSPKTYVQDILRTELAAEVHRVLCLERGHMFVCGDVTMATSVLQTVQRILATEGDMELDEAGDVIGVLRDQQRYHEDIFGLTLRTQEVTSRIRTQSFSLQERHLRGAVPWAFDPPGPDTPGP
Chain of iNOS (type 2) (Q06518 whole entry, canonical isoform): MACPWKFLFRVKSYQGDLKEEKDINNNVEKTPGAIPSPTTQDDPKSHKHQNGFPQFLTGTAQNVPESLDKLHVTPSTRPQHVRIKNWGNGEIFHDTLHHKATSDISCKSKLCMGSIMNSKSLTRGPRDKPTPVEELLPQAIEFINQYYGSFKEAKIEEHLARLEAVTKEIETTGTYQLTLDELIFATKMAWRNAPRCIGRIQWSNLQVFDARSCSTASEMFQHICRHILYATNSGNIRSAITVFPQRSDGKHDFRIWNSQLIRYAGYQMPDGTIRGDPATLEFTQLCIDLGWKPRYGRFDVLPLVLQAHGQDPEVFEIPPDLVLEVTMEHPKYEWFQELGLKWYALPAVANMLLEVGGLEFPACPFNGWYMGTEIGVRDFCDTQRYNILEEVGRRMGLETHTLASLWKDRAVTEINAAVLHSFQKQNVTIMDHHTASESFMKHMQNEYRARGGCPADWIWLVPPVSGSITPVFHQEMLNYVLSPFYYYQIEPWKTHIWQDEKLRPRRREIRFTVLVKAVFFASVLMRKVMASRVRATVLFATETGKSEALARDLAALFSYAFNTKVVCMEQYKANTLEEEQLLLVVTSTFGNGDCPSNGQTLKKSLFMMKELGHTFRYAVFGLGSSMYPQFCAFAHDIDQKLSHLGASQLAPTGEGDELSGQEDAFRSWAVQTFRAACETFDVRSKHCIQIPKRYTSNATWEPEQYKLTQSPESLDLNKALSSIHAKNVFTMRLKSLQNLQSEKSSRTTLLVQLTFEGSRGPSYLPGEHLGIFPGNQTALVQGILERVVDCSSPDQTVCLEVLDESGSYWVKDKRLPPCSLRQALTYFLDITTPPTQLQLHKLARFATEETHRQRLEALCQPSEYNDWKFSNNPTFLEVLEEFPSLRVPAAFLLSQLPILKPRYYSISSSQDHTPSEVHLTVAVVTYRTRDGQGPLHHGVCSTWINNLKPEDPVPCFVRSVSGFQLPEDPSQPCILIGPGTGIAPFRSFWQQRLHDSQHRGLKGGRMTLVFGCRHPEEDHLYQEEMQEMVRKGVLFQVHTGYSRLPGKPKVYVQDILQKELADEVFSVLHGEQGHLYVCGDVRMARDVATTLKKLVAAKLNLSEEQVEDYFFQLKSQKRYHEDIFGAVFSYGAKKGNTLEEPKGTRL

SMILES: CCSC(=N)NCCC[C@H](N)C(=O)O [L-EIN, S-ethyl-L-thiocitrulline]
IC50 [1]: 8.4 nM
IC50 [2]: 732 nM
IC50 [3]: 6760 nM

SMILES: CSC(=N)NCCC[C@H](N)C(=O)O [L-MIN, S-methyl-L-thiocitrulline, reference compound]
IC50 [1]: 5.7 nM
Ratio of IC50 eNOS/nNOS [1]: 6.28
Ratio of IC50 iNOS/nNOS [1]: 43.3
IC50 [2]: 35.8 nM
Ratio of IC50 eNOS/inos [2]: 0.145
IC50 [3]: 248 nM

SMILES: COC(=O)[C@@H](N)CCCNC(=N)N[N+](=O)[O-] [L-NAME, N^G-nitro-L-arginine methyl ester, reference compound]
IC50 [2]: 670 nM
IC50 [3]: 13500 nM

Continued, in another order:

IC50 [1, 4]: 3.7 nM
Ratio of IC50 eNOS/nNOS [1]: 515
Ratio of IC50 iNOS/nNOS [1]: 2120
IC50 [2]: 1920 nM
Ratio of IC50 eNOS/inos [2]: 0.243
IC50 [3]: 7930 nM
SMILES: CCSC(=N)Nc1ccc(-n2cccc2)c(CN)c1 [Example 1, N-(3-aminomethyl-4-(pyrrol-1-yl)phenyl)-S-ethylisothiourea dihydrochloride]
nNOS inhibiting activity compared with L-MIN ([1]; comparison drawn from Table 2): more potent nNOS inhibiting activity than L-MIN
selectivity for nNOS inhibition over eNOS compared with L-EIN ([1]; comparison drawn from Table 2): higher selectivity for nNOS inhibition over eNOS than L-EIN

IC50 [1, 4]: 6.3 nM
Ratio of IC50 eNOS/nNOS [1]: 816
Ratio of IC50 iNOS/nNOS [1]: 3260
IC50 [2]: 5130 nM
Ratio of IC50 eNOS/inos [2]: 0.250
IC50 [3]: 20500 nM
SMILES: CCSC(=N)Nc1ccc(-n2cccn2)c(CN)c1 [Example 2, N-(3-aminomethyl-4-(pyrazol-1-yl)phenyl)-S-ethylisothiourea dihydrochloride]
selectivity for nNOS inhibition over eNOS compared with L-EIN ([1]; comparison drawn from Table 2): higher selectivity for nNOS inhibition over eNOS than L-EIN

IC50 [1, 4]: 22.4 nM
Ratio of IC50 eNOS/nNOS [1]: 943
IC50 [2]: 21100 nM
SMILES: CCSC(=N)Nc1ccc(-n2cccn2)c(CN)c1C [Example 7, N-(3-aminomethyl-2-methyl-4-(pyrazol-1-yl)phenyl)-S-ethylisothiourea dihydrochloride]
selectivity for nNOS inhibition over eNOS compared with L-EIN ([1]; comparison drawn from Table 2): higher selectivity for nNOS inhibition over eNOS than L-EIN

IC50 [2]: 1540 nM
IC50 [3]: 7150 nM
SMILES: N=C(NCCC[C@H](N)C(=O)O)NC1CC1 [L-CPA, N^G-cyclopropyl-L-arginine]

IC50 [3]: 3460 nM
SMILES: N=C(NCCC[C@H](N)C(=O)O)N[N+](=O)[O-] [L-NA, N^G-nitro-L-arginine]
